Data from patent US5244897A, “Glycyl-p-amino-pyridine for the treatment of senile dementia states” (priority 1989, dated 1993).

Legend:
[1] = system: electroconvulsive shock (ECS) induced amnesia; experiment: electroconvulsive shock (ECS) induced amnesia (passive avoidance); format: in vivo, male mice; conditions: n=20; for minimal effective dose: Mus musculus, ip, read-out: Active dose (significantly prolonged the latency)
Procedure: Male mice (body weight 23-26 grams) were used.
Test apparatus and passive avoidance training (acquisition trial) were as described in the previous section.
Immediately after acquisition trial, amnesia was induced by electroconsulsive shock (ECS).
Test compounds were administered intraperitoneally soon afterwards the exposure to ECS.
The test trial was performed 24 h after the acquisition trial: the animals were put in the illuminated compartment an the latency time to enter the unlighted compartment was recorded
(§1) Anti-amnesic activity was calculated according to the following formula.
(§2) % of control = (the mean latency time of test compound treated mice/the
(§3) mean latency time of vehicle treated mice) × 100.

[2] = system: scopolamine-induced amnesia; experiment: scopolamine-induced amnesia (passive avoidance); format: in vivo, mice; conditions: for minimal effective dose: Mus musculus, ip, read-out: Active dose (significantly prolonged the latency)
Procedure: Test apparatus, mice and passive avoidance training (acquisition trial) were as described in the previous sections (4.2-4.3). The compounds were intraperitoneally administered 30 min. before the acquisition trial.
Amnesia was induced by scolopolamine (1 mg/kg s.c.) given 20 min. prior to the acquisition trial; the test trial was performed after 24 hours.
The animals were put in the illuminated compartment and latency time to enter the dark compartment was recorded.
as §1, §2, §3

[3] = system: spontaneous EEG (motor cortex, hippocampus, nucleus amygdalae); experiment: spontaneous EEG; format: in vivo; conditions: 0.1 mg/kg i.v., rabbits
Source text: Electrodes were chronically implanted in the motor cortex, the hippocampus and the nucleus amygdalae of rabbits (n=4).
The effects of compounds on spontaneous EEG were studied in the animals.

[4] = system: transcallosal evoked potential from the opposite side cerebral cortex; experiment: transcallosal evoked potential; format: in vivo, urethane anesthetized rats; conditions: 0.1 mg/kg i.v., rats
Procedure: (§4) Electric stimulus was given to the callosum of urethane anesthetized rats, and transcallosal evoked potential from the opposite side cerebral cortex was measured.
(§5) The effects of the compounds on the transcallosal evoked potential were studied in rats.

[5] = mean blood pressure (reported with the transcallosal evoked potential study); format: in vivo, rats; conditions: for mean blood pressure: MR-3066 2 mg/kg i.v., physostigmine 0.1 mg/kg i.v.
Procedure: as §4, §5

[6] = acute toxicity after oral administration (Litchfield and Wilcoxon); format: in vivo; conditions: Swiss mice; for LD50: mouse, in vivo
[7] = acute convulsant activity after oral administration (Litchfield and Wilcoxon); format: in vivo; conditions: Swiss male mice; for TD50: mouse, in vivo, read-out: CD50 (Convulsant Doses 50)
[8] = toxicity after repeated oral administration, 30 days, preliminary study; format: in vivo, male and female Sprague Dawley rat; conditions: 6 mg/kg oral, 30 consecutive days, rat
Procedure: The toxicity of MR-3066 after repeated administration was evaluated in male and female Sprague Dawley rat after oral administration of the drug (6 mg/kg) for 30 consecutive days.

[9] = system: acetylcholine release from the rat's cerebral cortex; experiment: acetylcholine release in vivo, acute treatment; conditions: 5.6 mg/kg i.p., anesthetized rats, n=5
Procedure: Effect on acetylcholine release from the rat's cerebral cortex "in vivo"
In this study the Acetylcholine release from the cerebral cortex was investigated in anesthetized rats (n=5) at different times before and after i.p. administration of MR-3066 at a dose of 5.6 mg/kg.

[10] = system: retention of passive avoidance response; experiment: learning behavior in normal mice (passive avoidance response); format: in vivo, male mice; conditions: n=20
Procedure: Male mice (body weight ca 20 grams) were used. The test apparatus was a box with a dark compartment and an illuminated one.
The animal was placed in the illuminated compartment, foot-shock was given immediately after the mouse moved in the dark compartement (acquisition trial).
MR-3066 was intraperitoneally administered immediately after the acquisition trial.
The test trial was carried out 24 h following the acquisition trial and the latency time to enter the dark compartment was recorded.
Anti-amnesic activity was calculated according to the following formula:
of control = (the mean latency time of test compound treated mice/the mea
latency time of vehicle treated mice) 100.

[11] = properties stated in the general summary; format: in vivo; conditions: general statement
[12] = ECS amnesia, 1 mg/kg i.p., MR-3066 ** P < 0.01 vs control
[13] = ECS amnesia, 2,5 mg/kg i.p., MR-3066 * P < 0.05, THA ** P < 0.01 vs control

**Q.** For `CNC(=O)Oc1ccc2c(c1)[C@]1(C)CCN(C)[C@@H]1N2C` [Physostigmine], which “Anti-amnesic activity (% of control)” value ([1]; ECS amnesia, 0,05 mg/kg i.p., * P < 0.05) is on record?
**A.** The value was 165,6 % of control.

**Q.** And the “Anti-amnesic activity (% of control)” value ([1]; ECS amnesia, 0,025 mg/kg i.p., * P < 0.05)?
**A.** The value was 172,9 % of control.

**Q.** And the “Anti-amnesic activity (% of control)” value ([1]; ECS amnesia, physostigmine 0,1 mg/kg i.p.)?
**A.** Its value is 148 % of control.

**Q.** And the minimal effective dose ([1]; ECS amnesia)?
**A.** The minimal effective dose was 0.025 to 0.05 mg/kg.

**Q.** And the minimal effective dose ([2]; scopolamine amnesia)?
**A.** The minimal effective dose was 0.1 mg/kg.

**Q.** And the “Active dose (significantly prolonged the latency)” value ([2]; scopolamine amnesia)?
**A.** The value was 0,1 mg/kg i.p.

**Q.** What about the “Anti-amnesic activity (% of control)” value ([2]; scopolamine amnesia, 0,1 mg/kg i.p., * P < 0.05) of the same compound?
**A.** The value was 155,5 % of control.

**Q.** What about the “Anti-amnesic activity (% of control)” value ([2]; scopolamine amnesia, 0,05 mg/kg i.p.) of the same compound?
**A.** Its value is 134,5 % of control.

**Q.** What about the “Anti-amnesic activity (% of control)” value ([2]; scopolamine amnesia, 0,025 mg/kg i.p.) of the same compound?
**A.** The value was 119,5 % of control.

**Q.** And the “onset of the EEG effects” value [3]?
**A.** Its value is “immediately after the administration”.

**Q.** And the “amplitude of negative wave of transcallosal evoked potential” value [4]?
**A.** Its value is “increased the amplitude of negative wave”.

**Q.** And the mean blood pressure [5]?
**A.** Its mean blood pressure is “raised the mean blood pressure”.

**Q.** And the “mean blood pressure effect versus MR-3066” value ([5]; physostigmine 0.1 mg/kg i.v. vs MR-3066 2 mg/kg i.v.)?
**A.** The value was “much more marked than MR-3066”.

**Q.** Which “Anti-amnesic activity (% of control)” value ([1]; ECS amnesia, 0,5 mg/kg i.p.) does the source give for `Nc1c2c(nc3ccccc13)CCCC2` [THA] here?
**A.** Its value is 72,2 % of control.

**Q.** What about the “Anti-amnesic activity (% of control)” value [1, 12] of the same compound?
**A.** Its value is 114,4 % of control.

**Q.** And the “Anti-amnesic activity (% of control)” value [1, 13]?
**A.** The value was 184,5 % of control.

**Q.** And the “Active dose (significantly prolonged the latency)” value ([1]; ECS amnesia)?
**A.** Its value is 2.5 mg/kg i.p.

**Q.** And the minimal effective dose ([1]; ECS amnesia)?
**A.** Its minimal effective dose is 2.5 mg/kg.

**Q.** What does the source list for `Nc1ccncc1` [4-aminopyridine, reference compound]?
**A.** LD50 [6]: 12 mg/kg; TD50 [7]: 5 mg/kg

**Q.** For `NCC(=O)Nc1ccncc1` [MR-3066, glycyl-p-amino-pyridine monoacetate], which “acute toxicity versus 4-aminopyridine” value [6] is on record?
**A.** Its value is “toxicity lower than 4-aminopiridine”.

**Q.** What about the LD50 [6] of the same compound?
**A.** Its LD50 is 29 mg/kg.

**Q.** What about the “convulsant activity versus 4-aminopyridine” value [7] of the same compound?
**A.** The value was “less convulsant than 4-aminopyridine”.

**Q.** And the TD50 [7]?
**A.** Its TD50 is 19 mg/kg.

**Q.** And the “toxic phenomena after repeated administration” value [8]?
**A.** The value was “no toxic phenomenon except for a slight decrease in body weight, increase in the female accompanied by a reduction in food consumption”.

**Q.** And the “time of peak of Ach release” value [9]?
**A.** Its value is 45 '.

**Q.** And the “Mean latency (% of control)” value ([10]; 1 mg/kg i.p.)?
**A.** The value was 120.5 % of control.

**Q.** What about the “Mean latency (% of control)” value ([10]; 2.5 mg/kg i.p.) of the same compound?
**A.** The value was 118.8 % of control.

**Q.** What about the “Mean latency (% of control)” value ([10]; 5 mg/kg i.p., ** P < 0.01 vs control) of the same compound?
**A.** The value was 136.1 % of control.

**Q.** What about the minimal effective dose ([10]; Mus musculus, ip, passive avoidance, normal mice, read-out: Active dose (significantly prolonged the latency)) of the same compound?
**A.** The minimal effective dose was 5 mg/kg.

**Q.** And the “Anti-amnesic activity (% of control)” value ([1]; ECS amnesia, 0,1 mg/kg i.p.)?
**A.** Its value is 148,2 % of control.

**Q.** And the “Anti-amnesic activity (% of control)” value ([1]; ECS amnesia, 0,5 mg/kg i.p.)?
**A.** Its value is 121,6 % of control.

**Q.** What about the “Anti-amnesic activity (% of control)” value ([1]; ECS amnesia, 0,25 mg/kg i.p.) of the same compound?
**A.** The value was 147,8 % of control.

**Q.** And the “Anti-amnesic activity (% of control)” value [1, 12]?
**A.** The value was 189,6 % of control.

**Q.** And the “Anti-amnesic activity (% of control)” value ([1]; ECS amnesia, 5 mg/kg i.p.)?
**A.** Its value is 148 % of control.

**Q.** What about the “Anti-amnesic activity (% of control)” value [1, 13] of the same compound?
**A.** Its value is 165,5 % of control.

**Q.** What about the minimal effective dose ([2]; scopolamine amnesia) of the same compound?
**A.** Its minimal effective dose is 1 mg/kg.

**Q.** What about the “Anti-amnesic activity (% of control)” value ([2]; scopolamine amnesia, 0,5 mg/kg i.p.) of the same compound?
**A.** Its value is 157,6 % of control.

**Q.** And the “Anti-amnesic activity (% of control)” value ([2]; scopolamine amnesia, 1 mg/kg i.p., ** P < 0.01 vs controls)?
**A.** The value was 188,1 % of control.

**Q.** And the “Anti-amnesic activity (% of control)” value ([2]; scopolamine amnesia, 5 mg/kg i.p.)?
**A.** The value was 159,5 % of control.

**Q.** What about the “Anti-amnesic activity (% of control)” value ([2]; scopolamine amnesia, 2,5 mg/kg i.p.) of the same compound?
**A.** Its value is 145,2 % of control.

**Q.** And the mean blood pressure [5]?
**A.** The mean blood pressure was “raised the mean blood pressure”.

**Q.** And the Parkinson-like effect [11]?
**A.** The Parkinson-like effect was “without nevertheless showing Parkinson-like effect”.
